{"source": "ChEMBL document CHEMBL5678812", "about": "“Inhibitors of p21-activated kinases (PAKs)” (J Med Chem, 2015)", "key": {"[1]": {"biological_target": "Serine/threonine-protein kinase PAK 2 (Homo sapiens, UniProt Q13177)", "sequence (Q13177 whole entry)": "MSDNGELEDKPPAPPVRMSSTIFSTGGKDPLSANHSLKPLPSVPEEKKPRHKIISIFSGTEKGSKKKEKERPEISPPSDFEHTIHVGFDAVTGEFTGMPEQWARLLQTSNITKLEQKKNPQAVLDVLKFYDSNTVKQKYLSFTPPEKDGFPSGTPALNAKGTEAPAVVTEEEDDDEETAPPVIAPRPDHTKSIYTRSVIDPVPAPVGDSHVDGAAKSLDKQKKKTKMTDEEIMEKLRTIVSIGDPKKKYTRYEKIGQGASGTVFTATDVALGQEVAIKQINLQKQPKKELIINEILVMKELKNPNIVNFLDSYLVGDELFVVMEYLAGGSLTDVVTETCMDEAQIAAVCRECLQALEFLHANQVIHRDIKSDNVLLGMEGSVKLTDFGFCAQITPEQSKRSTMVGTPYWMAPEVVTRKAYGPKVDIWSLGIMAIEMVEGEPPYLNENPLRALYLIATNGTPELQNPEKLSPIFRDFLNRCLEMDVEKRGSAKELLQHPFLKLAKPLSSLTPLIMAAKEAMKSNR", "assay": "Binding affinity to PAK2 (unknown origin) assessed as dissociation constant"}, "[2]": {"assay": "Kinetic solubility of compound", "type": "physicochemical", "settings": "read-out: Kinetic_solubility"}, "[3]": {"biological_target": "Serine/threonine-protein kinase PAK 4 (Mus musculus, UniProt Q8BTW9)", "sequence (Q8BTW9 whole entry)": "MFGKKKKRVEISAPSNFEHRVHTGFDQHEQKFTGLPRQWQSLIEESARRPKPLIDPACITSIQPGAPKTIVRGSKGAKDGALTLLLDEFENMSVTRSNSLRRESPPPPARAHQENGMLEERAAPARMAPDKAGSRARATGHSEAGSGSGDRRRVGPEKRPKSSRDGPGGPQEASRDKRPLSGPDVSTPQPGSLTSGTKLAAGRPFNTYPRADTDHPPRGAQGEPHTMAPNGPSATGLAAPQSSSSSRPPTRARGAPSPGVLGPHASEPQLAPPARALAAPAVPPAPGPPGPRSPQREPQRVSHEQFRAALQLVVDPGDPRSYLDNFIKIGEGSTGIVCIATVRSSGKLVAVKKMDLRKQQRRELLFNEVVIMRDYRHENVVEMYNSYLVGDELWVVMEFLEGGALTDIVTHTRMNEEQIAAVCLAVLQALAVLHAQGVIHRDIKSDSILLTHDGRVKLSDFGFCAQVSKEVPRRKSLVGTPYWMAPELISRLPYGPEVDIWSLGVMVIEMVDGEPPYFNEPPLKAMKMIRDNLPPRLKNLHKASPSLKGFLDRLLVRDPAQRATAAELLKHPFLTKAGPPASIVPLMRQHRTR", "assay": "Inhibition of PAK4 in mouse NIH3T3 cells assessed as reduction in phosphorylated GEF-H1 accumulation incubated for 30 mins by immunoblotting analysis", "type": "cell-based"}, "HCT-116 [4]": {"test_system": "HCT-116", "assay": "Antitumor activity against human HCT-116 cells xenografted in mouse assessed as tumor growth inhibition at 12 mg/kg, po", "type": "functional", "settings": "read-out: TGI"}, "M24met [5]": {"test_system": "M24met", "assay": "Antitumor activity against human M24met cells xenografted in mouse assessed as tumor growth inhibition at 15 mg/kg, po", "type": "functional", "settings": "read-out: TGI"}, "[6]": {"assay": "Half life in dog at 10 mg/kg, po", "type": "ADME, organism-based, Canis lupus familiaris", "settings": "in vivo"}, "HCT-116 [7]": {"test_system": "HCT-116", "assay": "Antitumor activity against human HCT-116 cells xenografted in mouse assessed as tumor growth inhibition at 20 mg/kg, po", "type": "functional", "settings": "read-out: TGI"}, "[8]": {"assay": "Oral bioavailability in dog at 10 mg/kg", "type": "ADME, organism-based, Canis lupus familiaris", "settings": "in vivo"}, "[9]": {"assay": "Clearance in dog at 10 mg/kg, po", "type": "ADME, organism-based, Canis lupus familiaris", "settings": "in vivo"}, "[10]": {"assay": "Clearance in rat at 10 mg/kg, po", "type": "ADME, organism-based", "settings": "in vivo"}, "[11]": {"assay": "Apparent permeability across apical to basolateral side in human Caco-2 cells", "type": "ADME, cell-based"}, "HCT-116 [12]": {"test_system": "HCT-116", "assay": "Antitumor activity against human HCT-116 cells xenografted in mouse assessed as downregulation of GEF-H1 phosphorylation at 25 mg/kg, po measured after 18 hrs", "type": "functional"}, "[13]": {"biological_target": "T1, Serine/threonine-protein kinase PAK 4 (Homo sapiens, UniProt O96013)", "assay": "Inhibition of PAK4 (unknown origin)"}, "[14]": {"biological_target": "T1, Serine/threonine-protein kinase PAK 4", "assay": "Inhibition of PAK4 (unknown origin) using 5-FAM-AhxKKRNRRLSVA-amide as substrate incubated for 90 mins by caliper off-chip mobility shift assay"}, "[15]": {"biological_target": "Serine/threonine-protein kinase PAK 3 (Homo sapiens, UniProt O75914)", "sequence (O75914 whole entry)": "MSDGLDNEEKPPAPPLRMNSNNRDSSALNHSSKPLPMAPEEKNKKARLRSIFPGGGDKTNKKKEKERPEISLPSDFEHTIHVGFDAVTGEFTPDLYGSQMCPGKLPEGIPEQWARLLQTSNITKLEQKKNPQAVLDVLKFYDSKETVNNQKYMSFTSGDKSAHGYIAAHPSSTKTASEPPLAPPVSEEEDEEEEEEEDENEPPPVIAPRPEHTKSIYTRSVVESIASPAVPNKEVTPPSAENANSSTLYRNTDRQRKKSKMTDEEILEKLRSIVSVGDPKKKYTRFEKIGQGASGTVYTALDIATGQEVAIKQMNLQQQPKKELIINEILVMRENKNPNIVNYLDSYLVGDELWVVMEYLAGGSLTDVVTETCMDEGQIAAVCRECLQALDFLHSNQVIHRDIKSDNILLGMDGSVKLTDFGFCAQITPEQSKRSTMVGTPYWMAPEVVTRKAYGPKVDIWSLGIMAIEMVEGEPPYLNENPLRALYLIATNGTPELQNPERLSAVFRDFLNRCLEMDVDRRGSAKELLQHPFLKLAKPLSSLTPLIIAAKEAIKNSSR", "assay": "Binding affinity to PAK3 (unknown origin) assessed as dissociation constant"}, "[16]": {"biological_target": "T1, Serine/threonine-protein kinase PAK 4", "assay": "Binding affinity to PAK4 (unknown origin) assessed as dissociation constant"}, "[17]": {"biological_target": "Serine/threonine-protein kinase PAK 5 (Homo sapiens, UniProt Q9P286)", "sequence (Q9P286 whole entry)": "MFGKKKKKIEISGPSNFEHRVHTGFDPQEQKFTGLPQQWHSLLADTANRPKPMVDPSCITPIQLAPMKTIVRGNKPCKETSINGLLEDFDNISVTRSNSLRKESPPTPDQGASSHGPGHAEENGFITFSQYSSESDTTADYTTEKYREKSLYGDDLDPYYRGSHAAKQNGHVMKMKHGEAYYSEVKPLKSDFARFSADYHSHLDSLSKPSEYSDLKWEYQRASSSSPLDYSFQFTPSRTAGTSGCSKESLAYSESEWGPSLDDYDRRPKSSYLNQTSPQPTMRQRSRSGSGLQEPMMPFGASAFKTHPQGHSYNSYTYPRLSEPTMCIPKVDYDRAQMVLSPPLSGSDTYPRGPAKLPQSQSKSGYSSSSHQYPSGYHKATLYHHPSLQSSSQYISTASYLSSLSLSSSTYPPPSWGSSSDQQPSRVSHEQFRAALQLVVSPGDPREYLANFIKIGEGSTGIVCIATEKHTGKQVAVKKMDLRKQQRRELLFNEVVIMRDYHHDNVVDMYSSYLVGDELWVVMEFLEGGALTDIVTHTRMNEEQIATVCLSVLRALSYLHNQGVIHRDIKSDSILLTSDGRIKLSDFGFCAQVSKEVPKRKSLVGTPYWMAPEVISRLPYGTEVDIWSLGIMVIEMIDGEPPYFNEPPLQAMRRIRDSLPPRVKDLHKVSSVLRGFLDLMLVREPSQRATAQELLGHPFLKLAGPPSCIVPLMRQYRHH", "assay": "Binding affinity to PAK7 (unknown origin) assessed as dissociation constant"}, "[18]": {"biological_target": "T1, Serine/threonine-protein kinase PAK 4", "assay": "Inhibition of PAK4 (unknown origin) at 10 uM relative to control"}, "[19]": {"biological_target": "T1, Serine/threonine-protein kinase PAK 4", "assay": "Inhibition of PAK4 (unknown origin) in presence of ATP by Z-LYTE enzymatic kinase assay"}, "[20]": {"biological_target": "T1, Serine/threonine-protein kinase PAK 4", "assay": "Inhibition of PAK4 (unknown origin) assessed as inhibition constant"}, "[21]": {"assay": "Inhibition of p53/pin 1 (unknown origin) interaction", "parameters": "species or system Homo sapiens"}, "COLO 205": {"test_system": "COLO 205", "assay": "Antitumor activity against human COLO 205 cells xenografted in mouse assessed as tumor growth inhibition at 7.5 to 30 mg/kg, po measured for 9 to 18 days", "type": "functional", "settings": "dose 7.5-30 mg/kg, time 9-18 day"}, "[22]": {"biological_target": "Tumour suppressor p53/oncoprotein Mdm2 (Homo sapiens, UniProt P04637+Q00987)", "sequence (P04637 whole entry)": "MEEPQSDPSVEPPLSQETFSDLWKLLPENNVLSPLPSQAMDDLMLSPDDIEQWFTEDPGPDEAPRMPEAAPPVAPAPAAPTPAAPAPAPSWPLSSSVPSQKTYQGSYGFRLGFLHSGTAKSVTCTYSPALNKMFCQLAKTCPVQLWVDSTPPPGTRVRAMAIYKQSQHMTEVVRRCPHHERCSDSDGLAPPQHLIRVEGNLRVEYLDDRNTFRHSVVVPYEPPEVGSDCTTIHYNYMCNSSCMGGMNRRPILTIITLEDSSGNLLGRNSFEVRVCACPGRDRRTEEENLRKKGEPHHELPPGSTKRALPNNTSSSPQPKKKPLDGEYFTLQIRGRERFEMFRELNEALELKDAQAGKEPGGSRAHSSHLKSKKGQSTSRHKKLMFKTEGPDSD", "sequence (Q00987 whole entry)": "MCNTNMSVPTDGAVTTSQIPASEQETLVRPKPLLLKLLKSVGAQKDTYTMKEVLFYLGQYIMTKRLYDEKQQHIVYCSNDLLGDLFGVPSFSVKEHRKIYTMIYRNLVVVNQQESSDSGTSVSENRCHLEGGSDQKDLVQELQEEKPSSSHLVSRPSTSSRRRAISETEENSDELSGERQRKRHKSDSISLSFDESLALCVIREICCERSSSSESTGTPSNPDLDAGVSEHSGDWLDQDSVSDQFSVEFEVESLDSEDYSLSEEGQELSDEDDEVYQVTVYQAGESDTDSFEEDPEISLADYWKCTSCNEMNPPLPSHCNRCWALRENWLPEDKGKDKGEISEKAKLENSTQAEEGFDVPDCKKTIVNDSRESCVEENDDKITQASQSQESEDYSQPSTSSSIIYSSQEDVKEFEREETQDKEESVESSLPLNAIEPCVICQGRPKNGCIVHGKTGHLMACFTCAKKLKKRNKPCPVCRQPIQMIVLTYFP", "assay": "Inhibition of MDM2/p53 (unknown origin) interaction", "type": "protein assay"}, "[23]": {"biological_target": "Cyclin-dependent kinase 7 (Homo sapiens, UniProt P50613)", "sequence (P50613 whole entry)": "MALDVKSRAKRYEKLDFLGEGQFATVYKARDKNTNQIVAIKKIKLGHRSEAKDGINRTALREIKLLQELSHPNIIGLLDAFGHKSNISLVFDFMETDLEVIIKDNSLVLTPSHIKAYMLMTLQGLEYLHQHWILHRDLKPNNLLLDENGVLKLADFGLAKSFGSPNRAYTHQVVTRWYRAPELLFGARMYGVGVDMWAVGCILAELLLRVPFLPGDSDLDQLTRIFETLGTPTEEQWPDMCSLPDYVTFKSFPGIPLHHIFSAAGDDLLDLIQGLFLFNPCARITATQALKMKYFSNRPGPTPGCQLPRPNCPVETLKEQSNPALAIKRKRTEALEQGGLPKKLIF", "assay": "Inhibition of CDK7 (unknown origin)"}, "[24]": {"biological_target": "Serine/threonine-protein kinase PAK 6 (Homo sapiens, UniProt Q9NQU5)", "sequence (Q9NQU5 whole entry)": "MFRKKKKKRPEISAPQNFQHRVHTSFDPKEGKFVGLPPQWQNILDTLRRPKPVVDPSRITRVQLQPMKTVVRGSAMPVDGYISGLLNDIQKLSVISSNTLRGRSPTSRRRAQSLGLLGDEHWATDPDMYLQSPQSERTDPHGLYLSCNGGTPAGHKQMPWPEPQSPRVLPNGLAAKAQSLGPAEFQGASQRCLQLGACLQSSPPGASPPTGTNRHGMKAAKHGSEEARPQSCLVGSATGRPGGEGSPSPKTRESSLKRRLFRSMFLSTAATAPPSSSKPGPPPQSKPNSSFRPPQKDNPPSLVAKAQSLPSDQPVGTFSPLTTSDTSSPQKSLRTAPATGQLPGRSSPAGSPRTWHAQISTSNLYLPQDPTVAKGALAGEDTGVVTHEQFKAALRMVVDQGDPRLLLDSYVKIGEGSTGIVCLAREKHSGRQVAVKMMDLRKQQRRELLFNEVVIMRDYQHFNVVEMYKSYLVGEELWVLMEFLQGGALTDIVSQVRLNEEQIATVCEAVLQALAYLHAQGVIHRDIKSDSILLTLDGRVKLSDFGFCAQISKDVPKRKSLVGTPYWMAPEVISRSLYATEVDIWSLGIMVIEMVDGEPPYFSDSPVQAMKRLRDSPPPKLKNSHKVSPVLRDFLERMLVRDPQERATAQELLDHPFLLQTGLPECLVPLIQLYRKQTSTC", "assay": "Inhibition of recombinant PAK6 (unknown origin)"}, "MDA-MB-231": {"test_system": "MDA-MB-231", "assay": "Antitumor activity against human MDA-MB-231 cells xenografted in mouse assessed as tumor growth inhibition at 7.5 to 30 mg/kg, po measured for 9 to 18 days", "type": "functional", "settings": "dose 7.5-30 mg/kg, time 9-18 day"}, "A549": {"test_system": "A549", "assay": "Antitumor activity against human A549 cells xenografted in mouse assessed as tumor growth inhibition at 7.5 to 30 mg/kg, po measured for 9 to 18 days", "type": "functional", "settings": "dose 7.5-30 mg/kg, time 9-18 day"}, "HCT-116 [25]": {"test_system": "HCT-116", "assay": "Antitumor activity against human HCT-116 cells xenografted in mouse assessed as tumor growth inhibition at 7.5 to 30 mg/kg, po measured for 9 to 18 days", "type": "functional", "settings": "dose 7.5-30 mg/kg, time 9-18 day"}, "M24met [26]": {"test_system": "M24met", "assay": "Antitumor activity against human M24met cells xenografted in mouse assessed as tumor growth inhibition at 7.5 to 30 mg/kg, po measured for 9 to 18 days", "type": "functional", "settings": "dose 7.5-30 mg/kg, time 9-18 day"}}, "data": [{"smiles": "CC(C)NC(=O)N1CCC(NC2=Nc3cc(F)ccc3N(CC(F)F)c3ccc(Cl)cc32)C1", "note": "(stereo not given)", "values": [{"measurement": "Kd", "setting": "[1]", "result": 400, "unit": "nM"}, {"measurement": "solubility kinetic", "setting": "[2]", "result": 55, "unit": "µM"}]}, {"smiles": "CN(C)C[C@@H](OC(=O)N1Cc2c(NC(=O)C(C)(C)C)n[nH]c2C1(C)C)c1ccccc1", "values": [{"measurement": "EC50", "setting": "[3]", "result": 4, "unit": "nM"}, {"measurement": "inhibition in vivo at 12 mg/kg", "setting": "HCT-116 [4]", "result": 37, "unit": "%"}, {"measurement": "inhibition in vivo at 15 mg/kg", "setting": "M24met [5]", "result": 68, "unit": "%"}, {"measurement": "half-life", "setting": "[6]", "result": 2.2, "unit": "h"}, {"measurement": "inhibition in vivo at 20 mg/kg", "setting": "HCT-116 [7]", "result": 52, "unit": "%"}, {"measurement": "bioavailability", "setting": "[8]", "result": 20, "unit": "%"}, {"measurement": "CL/F", "setting": "[9]", "result": 12, "unit": "mL/min/kg"}, {"measurement": "CL/F", "setting": "[10]", "result": 52, "unit": "mL/min/kg"}, {"measurement": "Papp A→B", "setting": "[11]", "result": 1.7, "unit": "×10⁻⁶ cm/s"}]}, {"smiles": "CN(C)C[C@@H](NC(=O)N1Cc2c(NC(=O)c3ccccc3)n[nH]c2C1(C)C)c1ccccc1", "values": [{"measurement": "EC50", "setting": "[3]", "result": 32, "unit": "nM"}, {"measurement": "Papp A→B", "setting": "[11]", "result": 0.1, "unit": "×10⁻⁶ cm/s"}, {"measurement": "Activity", "setting": "HCT-116 [12]", "result": "~61", "unit": "%"}]}, {"smiles": "COc1nc(NCCc2c[nH]c3ccccc23)nc(Nc2ccc3[nH]ncc3c2)n1", "values": [{"measurement": "IC50", "setting": "[13]", "result": 790, "unit": "nM"}]}, {"smiles": "CN(C)C[C@@H](NC(=O)c1ccc2[nH]nc(-c3nc4ccccc4[nH]3)c2c1)c1ccccc1", "values": [{"measurement": "EC50", "setting": "[3]", "result": 13, "unit": "nM"}]}, {"smiles": "O=C(c1ccccc1Cl)c1n[nH]c2ncc(-c3cnn(C4CCNCC4)c3)cc12", "values": [{"measurement": "IC50", "setting": "[14]", "result": 550, "unit": "nM"}]}, {"smiles": "CCN1c2ccc(F)cc2N=C(NC2CCN(C(=O)NC(C)(C)C)C2)c2cc(Cl)ccc21", "note": "(stereo not given)", "values": [{"measurement": "Kd", "setting": "[1]", "result": 1100, "unit": "nM"}, {"measurement": "Kd", "setting": "[15]", "result": "> 40000", "unit": "nM"}, {"measurement": "Kd", "setting": "[16]", "result": "> 40000", "unit": "nM"}, {"measurement": "Kd", "setting": "[17]", "result": "> 40000", "unit": "nM"}]}, {"smiles": "CCn1cnc2c(Nc3cccc(Cl)c3)nc(NC3CCCCC3N)nc21", "note": "(stereo not given)", "values": [{"measurement": "inhibition", "setting": "[18]", "result": 44, "unit": "%"}]}, {"smiles": "CCn1c(=O)c(-c2ccc(-c3cncs3)cc2Cl)cc2cnc(Nc3ccc(N4CCN(C)CC4)cc3)nc21", "values": [{"measurement": "IC50", "setting": "[19]", "result": "> 10000", "unit": "nM"}]}, {"smiles": "CCn1c(=O)c(-c2ccc(-c3noc(C)n3)cc2Cl)cc2cnc(Nc3ccc(C4CCN(C)CC4)cc3)nc21", "values": [{"measurement": "IC50", "setting": "[13]", "result": 960, "unit": "nM"}]}, {"smiles": "N[C@@H]1[C@H]2CN(c3nc(Nc4cc(C5CC5)[nH]n4)c4sccc4n3)C[C@@H]12", "values": [{"measurement": "Ki", "setting": "[20]", "result": 4, "unit": "nM"}]}, {"smiles": "Cc1nc(Nc2n[nH]c3c2CN(C(=O)N[C@H](CN(C)C)c2ccccc2)C3(C)C)c2sccc2n1", "note": "[PF-03758309]", "values": [{"measurement": "IC50", "setting": "[21]", "result": 5.7, "unit": "nM"}, {"measurement": "TGI", "setting": "COLO 205", "result": ">70", "unit": "%"}, {"measurement": "IC50", "setting": "[22]", "result": 5.6, "unit": "nM"}, {"measurement": "IC50", "setting": "[23]", "result": 7, "unit": "nM"}, {"measurement": "IC50", "setting": "[24]", "result": "~20", "unit": "nM"}, {"measurement": "TGI", "setting": "MDA-MB-231", "result": ">70", "unit": "%"}, {"measurement": "TGI", "setting": "A549", "result": ">70", "unit": "%"}, {"measurement": "TGI", "setting": "HCT-116 [25]", "result": ">70", "unit": "%"}, {"measurement": "TGI", "setting": "M24met [26]", "result": ">70", "unit": "%"}]}, {"smiles": "CN1CCN(C(=O)N2Cc3c(NC(=O)c4cccc(Oc5ccccc5)c4)n[nH]c3C2(C)C)[C@@H](Cc2ccccc2)C1", "values": [{"measurement": "EC50", "setting": "[3]", "result": 810, "unit": "nM"}]}]}
